In patent US20240360114A1 (SIRONAX LTD., priority 2021, published 2024) one finds EC50 data, which are given here for 40 molecules.

The test system of the first experiment is HT-1080 cells. As to the kind of experiment: HT-1080 cell viability assay (ferroptosis induced by RSL3, Cell Titer-Glo). In kind it is cell-based. Conditions: Homo sapiens, HT-1080, 20 h, ferroptosis inducer RSL3, 20 hours, ferroptosis inhibitory activity, Table 2. An outline of the steps:
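EC50 fitted by sigmoidal dose-response regression on luminescent viability data normalized to untreated cells. Compounds ran as a 10-point, 3-fold series from 1.1 μM alongside RSL3 for 20 hours, after overnight seeding.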
Broadly, the EC50 is the concentration needed to bring the measured effect to its halfway point. A lower EC50 goes with higher potency in that assay. `Cc1cc(N(C)C)ccc1NC[C@H]1CC[C@H](N)CC1` [Compound 393, N^1-(((1r,4r)-4-aminocyclohexyl)methyl)-N4,N4,2-trimethylbenzene-1,4-diamine]: the EC50 lay within 0.1 to 100 nM. `Cc1nc(N(C)CC(F)(F)F)ccc1NC1CC2(CC(N)C2)C1` (stereo not shown) [Compound 558, N^5-(6-aminospiro [3.3]heptan-2-yl)-N2,6-dimethyl-N2-(2,2,2-trifluoroethyl)pyridine-2,5-diamine] displayed an EC50 of 0.1 to 100 nM. On to `Cc1nc(N2C[C@@H](C)N(CC(F)(F)F)[C@@H](C)C2)ccc1NC1CCC(N)CC1` (stereo partly shown) [Compound 542], for which the EC50 was in the range of 0.1 to 100 nM. The molecule `CC(C)C1CCN(c2ccc(NC3CCC(N)CC3)nc2)CC1` (stereo not shown) [Compound 406, N1-(5-(4-isopropylpiperidin-1-yl)pyridin-2-yl)cyclohexane-1,4-diamine] registered an EC50 of 0.1 to 100 nM. As to `Cc1nc(N2CC[C@H]3OCCC[C@@H]3C2)ccc1NC1CC2(CC(N)C2)C1` (stereo partly drawn) [Compound 508, N2-(6-((4aR,8aR)-hexahydro-2H-pyrano [3,2-c]pyridin-6 (5H)-yl)-2-methylpyridin-3-yl)spiro[3. 3]heptane-2,6-diamine], the concentration for a half-maximal effect (EC50) was in the range of 0.1 to 100 nM.

Consider `CC(C)(C)c1ccc(NCCn2ccnc2)cc1` [Compound 175, N-(2-(1H-imidazol-1-yl)ethyl)-4-(tert-butyl)aniline], for which the EC50 lay in the range of 1000 to 10000 nM. `CC1(C)CCC(c2ccc(NCCCN)cc2)CC1` [Compound 209, 1-N-(4-(4,4-dimethylcyclohexyl)phenyl)propane-1,3-diamine] returned an EC50 of 0.1 to 100 nM. Same read-out and setting: under `CN(C)CCOC1CCC(Nc2ccc(C(C)(C)C)cc2)CC1` (stereo not shown) [Compound 319A, 4-(tert-butyl)-N-(4-(2-(dimethylamino)ethoxy)cyclohexyl)aniline] stands 100 to 1000 nM; under `NC1CCC(Nc2ccc3nc(N4CCC(C(F)(F)F)CC4)ccc3c2)CC1` (stereo not shown) [Compound 562, N-(2-(4-(trifluoromethyl)piperidin-1-yl)quinolin-6-yl)cyclohexane-1,4-diamine], 0.1 to 100 nM; under `CC1(C)CCC(c2ccc(NC3CCC(NC(=O)C4CNCCN4)CC3)cc2)CC1` (stereo not shown) [Compound 274, N-(4-((4-(4,4-dimethylcyclohexyl)phenyl)amino)cyclohexyl) piperazine-2-carboxamide], 0.1 to 100 nM. Regarding `Cc1cc(N2CCCOCC2)ccc1NC1CC2(CC(N)C2)C1` (stereo not shown) [Compound 465, N2-(2-methyl-4-(1,4-oxazepan-4-yl)phenyl)spiro[3.3]heptane-2,6-diamine], the 50% effective concentration (EC50) fell in the range of 0.1 to 100 nM. In turn, `NCCOc1cc(NC2CCC(N)CC2)ccc1N1CCC(C(F)(F)F)CC1` (stereo not shown) [Compound 41A, N1-(3-(2-aminoethoxy)-4-(4-(trifluoromethyl)piperidin-1-yl)phenyl)cyclohexane-1,4-diamine] gave an EC50 of 100 to 1000 nM. The molecule `Cc1cc(NC2CC(C(N)=O)C2)ccc1N1CCC(C(F)(F)F)CC1` (stereo not shown) [Compound 437, 3-((3-methyl-4-(4-(trifluoromethyl)piperidin-1-yl)phenyl)amino)cyclobutane-1-carboxamide] yielded an EC50 of 0.1 to 100 nM.

The molecule `CC(C)(C)c1ccc(NCCc2cnc[nH]2)cc1` [Compound 177, N-(2-(1H-imidazol-5-yl)ethyl)-4-(tert-butyl)aniline] came in with an EC50 of 1000 to 10000 nM. `CC(C)(C)c1ccc(NC2CCC(NC(N)=O)CC2)cc1` (stereo not shown) [Compound 266A, 1-(4-((4-(tert-butyl)phenyl)amino)cyclohexyl)urea] registered an EC50 of 100 to 1000 nM. In the case of `CC(C)C1CCN(c2ncc(NC[C@H]3CC[C@H](NC(N)=O)CC3)cn2)CC1` [Compound 409, 1-((1r,4r)-4-(((2-(4-isopropylpiperidin-1-yl)pyrimidin-5-yl)amino)methyl)cyclohexyl)urea], the EC50 fell in the range of 0.1 to 100 nM. The molecule `NC1CCCCC1Nc1ccc(N2CCC(C(F)(F)F)CC2)cc1` (stereo not shown) [Compound 402, N1-(4-(4-(trifluoromethyl)piperidin-1-yl)phenyl)cyclohexane-1,2-diamine] yielded a half-maximal effective concentration (EC50) of 0.1 to 100 nM. Take `CCCCCNc1ccc(N2CCC(C(F)(F)F)CC2)cc1` [Compound 15, N-pentyl-4-(4-(trifluoromethyl)piperidin-1-yl)aniline]: the 50% effective concentration (EC50) lay within 0.1 to 100 nM. Consider `CC(C)(C)c1ccc(NC2CCC(C[N+](C)(C)C)CC2)cc1` (stereo not shown) [Compound 258, 1-(4-((4-(tert-butyl)phenyl)amino)cyclohexyl)-N,N,N-trimethylmethanaminium], for which the 50% effective concentration (EC50) lay within 1000 to 10000 nM.

As to `[2H]C1([2H])CC(N)CC([2H])([2H])C1([2H])Nc1ccc(C(C)(C)C)cc1` (stereo not shown) [Compound 347, N1-(4-(tert-butyl)phenyl)cyclohexane-1,2,2,6,6-d5-1,4-diamine], the EC50 fell in the range of 0.1 to 100 nM. Molecule `CC(C)(C)c1ccc(NC2CCC(N)(CO)CC2)cc1` (single isomer, unassigned) [Compound 213A, (1-amino-4-((4-(tert-butyl)phenyl)amino)cyclohexyl)methanol] registered an EC50 of 100 to 1000 nM.

`CC(C)(C)c1ccc(NC2CCC(N)CC2)c(F)c1` (stereo not shown) [Compound 190, N1-(4-(tert-butyl)-2-fluorophenyl)cyclohexane-1,4-diamine]: the concentration for a half-maximal effect (EC50) was 100 to 1000 nM. The molecule `CC(C)C1CCN(c2ncc(NC3C4CC5CC3CC(C(N)=O)(C5)C4)cn2)CC1` (stereo not shown) [Compound 388, 4-((2-(4-isopropylpiperidin-1-yl)pyrimidin-5-yl)amino)adamantane-1-carboxamide] had an EC50 of 0.1 to 100 nM. On the same count and under the same terms, under `CC(C)(C)c1ccc(NC2CCC(N)CC2)c(Cl)c1` (single isomer, unassigned) [Compound 183A, N1-(4-(tert-butyl)-2-chlorophenyl)cyclohexane-1,4-diamine] stands 1000 to 10000 nM. As for `CC[C@@H]1CN(c2ccc(NC3CCC(N)CC3)c(C)n2)C[C@H](C)O1` (stereo partly drawn) [Compound 551, N1-(6-((2R,6S)-2-ethyl-6-methylmorpholino)-2-methylpyridin-3-yl)cyclohexane-1,4-diamine], the 50% effective concentration (EC50) fell in the range of 100 to 1000 nM. `CC1CN(c2ccc(NC[C@H]3CC[C@H](N)CC3)cc2C#N)CC(C)O1` (stereo partly shown) [Compound 468, 5-((((1r,4r)-4-aminocyclohexyl)methyl)amino)-2-(2,6-dimethylmorpholino)-benzonitrile] had an EC50 of 0.1 to 100 nM.

In turn, `CC1CN(c2cc(F)c(NC[C@H]3CC[C@H](N)CC3)cc2F)CC(C)O1` (stereo partly shown) [Compound 481, N-(((1r,4r)-4-aminocyclohexyl)methyl)-4-(2,6-dimethylmorpholino)-2,5-difluoroaniline] returned an EC50 of 100 to 1000 nM. On the same count and under the same terms, under `CCc1nc(N2C[C@@H](C)O[C@@H](C)C2)ccc1NC[C@H]1CC[C@H](N)CC1` [Compound 544, N-(((1r,4R)-4-aminocyclohexyl)methyl)-6-((2S,6R)-2,6-dimethylmorpholino)-2-ethylpyridin-3-amine] stands 0.1 to 100 nM.

In the case of `NC(=O)C1CCC(Nc2ccc3cc(N4CCC(C(F)(F)F)CC4)ccc3c2)CC1` (stereo not shown) [Compound 563, 4-((6-(4-(trifluoromethyl)piperidin-1-yl)naphthalen-2-yl)amino)cyclohexane-1-carboxamide], the EC50 was in the range of 0.1 to 100 nM. `CC1(C)CN(c2ncc(NC3CCC(N)CC3)cn2)C1` (stereo not shown) [Compound 33A, N1-(2-(3,3-dimethylazetidin-1-yl)pyrimidin-5-yl)cyclohexane-1,4-diamine] showed an EC50 of 1000 to 10000 nM. Regarding `Cc1cc(N2CCC(C(F)(F)F)CC2)ccc1NC1CCC(N)CC1` (stereo not shown) [Compound 69, N1-(2-methyl-4-(4-(trifluoromethyl)piperidin-1-yl)phenyl)cyclohexane-1,4-diamine], the EC50 is 0.1 to 100 nM. `N[C@H]1CC[C@H](CNc2ccc(C3CCN(CC(F)(F)F)CC3)cc2)CC1` [Compound 559, N-(((1r, 4r)-4-aminocyclohexyl)methyl)-4-(1-(2,2,2-trifluoroethyl)piperidin-4-yl)aniline] yielded an EC50 of 0.1 to 100 nM.

With `Cc1c(NC2CCC(N)CC2)ccc(N2CCC(C(F)(F)F)CC2)c1F` (stereo not shown) [Compound 57, N1-(3-fluoro-2-methyl-4-(4-(trifluoromethyl)piperidin-1-yl)phenyl)cyclohexane-1,4-diamine], the half-maximal effective concentration (EC50) lay within 0.1 to 100 nM.

The same experiment, now with this note: Homo sapiens, HT-1080, 20 h, ferroptosis inducer RSL3, 20 hours, ferroptosis inhibitory activity, Table 3.
On to `Cc1nc(N2C3CCC2CC3)ccc1NC1CC2(CC(N)C2)C1` (stereo not shown) [Compound 587, N2-(6-(7-azabicyclo[2.2.1]heptan-7-yl)-2-methylpyridin-3-yl)spiro[3.3]heptane-2,6-diamine], for which the EC50 lay within 100 to 1000 nM.

In turn, `C[C@@H]1CN(c2ccc3cc(NC4CC(CN)C4)ccc3c2)C[C@H](C)O1` (stereo partly drawn) [Compound 649, N-(3-(aminomethyl)cyclobutyl)-6-((2S,6R)-2,6-dimethylmorpholino) naphthalen-2-amine] registered an EC50 of 0.1 to 100 nM.

The experiment is the same for the next values; noted with them: Homo sapiens, ferroptosis inducer RSL3, 20 hours, ferroptosis inhibitory activity, Table 2.
Molecule `NC(=O)[C@@H]1CCC(Nc2ccc(N3CCC(C(F)(F)F)CC3)cc2)[C@@H](N)C1` (stereo in doubt) [Compound 502, (1R,3S)-3-amino-4-((4-(4-(trifluoromethyl)piperidin-1-yl)phenyl)amino)cyclohexane-1-carboxamide] yielded a concentration for a half-maximal effect (EC50) of 0.1 to 100 nM.

Still in this experiment, the particulars now being: ferroptosis inducer RSL3, 20 hours, ferroptosis inhibitory activity, Table 2.
In turn, `CC1CN(c2ccc(NC3CC4(CC(N)C4)C3)cc2F)CC(C)N1CC(F)(F)F` (stereo not shown) [Compound 186, N2-(4-(3,5-dimethyl-4-(2,2,2-trifluoroethyl)piperazin-1-yl)-3-fluorophenyl) spiro-[3.3]heptane-2,6-diamine] yielded a concentration giving a half-maximal response (EC50) of 100 to 1000 nM.

Molecule `Cc1nc(N2CC(C)OC(C)C2)c(F)cc1NC1C2CC3CC1CC(CN)(C3)C2` (single isomer, unassigned) [Compound 539A, N-((2r,5s)-5-(aminomethyl)adamantan-2-yl)-6-(2,6-dimethylmorpholino)-5-fluoro-2-methylpyridin-3-amine] returned an EC50 of 0.1 to 100 nM. Consider `NC1CCC(Nc2ccc(C3CCCCC3)cc2)CC1` (stereo not shown) [Compound 133, N1-(4-cyclohexylphenyl)cyclohexane-1,4-diamine], for which the EC50 is 0.1 to 100 nM. The same measure, in the same setting: with `CC(C)(C)c1ccc(NCC2CC(N)C2)cc1` (single isomer, unassigned) [Compound 335B, N-((3-aminocyclobutyl)methyl)-4-(tert-butyl)aniline] the figure was 0.1 to 100 nM.
